Experimental data taken from PubChem BioAssay (NCI).
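Five concentrations, 48 hours, 96-well plates. Definition used: TGI = concentration required for complete inhibition of growth.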

Key:
Experiment in all cases: DTP human tumour cell line panel, 48 h
RPMI-8226 leukemia = test system: RPMI-8226 leukemia
M14 melanoma = test system: M14 melanoma
HOP-92 NSCLC = test system: HOP-92 NSCLC
K-562 leukemia = test system: K-562 leukemia
HCT-116 colon = test system: HCT-116 colon
NCI-H23 lung = test system: NCI-H23 lung
M19-MEL melanoma = test system: M19-MEL melanoma
CAKI-1 renal = test system: CAKI-1 renal
IGROV1 ovarian = test system: IGROV1 ovarian
SNB-19 CNS = test system: SNB-19 CNS
U251 CNS = test system: U251 CNS
SK-MEL-28 melanoma = test system: SK-MEL-28 melanoma
OVCAR-4 ovarian = test system: OVCAR-4 ovarian
OVCAR-3 ovarian = test system: OVCAR-3 ovarian
SN12C renal = test system: SN12C renal
RXF 393 renal = test system: RXF 393 renal
SR leukemia = test system: SR leukemia
HS 578T breast = test system: HS 578T breast
MCF7 breast = test system: MCF7 breast
PC-3 prostate = test system: PC-3 prostate

Compound	TGI (RPMI-8226 leukemia) [µM]	TGI (M14 melanoma) [µM]	TGI (HOP-92 NSCLC) [µM]	TGI (K-562 leukemia) [µM]	TGI (HCT-116 colon) [µM]	TGI (NCI-H23 lung) [µM]	TGI (M19-MEL melanoma) [µM]	TGI (CAKI-1 renal) [µM]	TGI (IGROV1 ovarian) [µM]	TGI (SNB-19 CNS) [µM]	TGI (U251 CNS) [µM]	TGI (SK-MEL-28 melanoma) [µM]	TGI (OVCAR-4 ovarian) [µM]	TGI (OVCAR-3 ovarian) [µM]	TGI (SN12C renal) [µM]	TGI (RXF 393 renal) [µM]	TGI (SR leukemia) [µM]	TGI (HS 578T breast) [µM]	TGI (MCF7 breast) [µM]	TGI (PC-3 prostate) [µM]
CC[C@@H](C(=O)[C@@H](C)[C@@H](O)[C@H](C)CCc1ccc(C)c(O)c1C(=O)O)[C@H]1O[C@](CC)([C@H]2CC[C@](O)(CC)[C@H](C)O2)C[C@@H]1C	5.28	13.8	8.96	3.05	9.65	6.87	4.06	11.7	13.3	5.95	6.33	2.86	19.2	10.9	10	–	–	–	–	–
COC(=O)N/N=C/c1oc(-c2ccccc2)c(-c2ccccc2)c1[N+](=O)[O-]	> 100	> 100	> 100	> 100	> 100	> 100	> 100	> 100	> 100	> 100	> 100	> 100	> 100	> 100	> 100	> 100	> 100	–	–	–
O=C1c2nn(-c3ccccc3)nc2C(c2ccccc2)N1c1ccccc1 (centres undefined)	> 100	> 100	–	> 100	> 100	> 100	> 100	> 100	> 100	> 100	> 100	> 100	> 100	> 100	> 100	–	> 100	–	–	–
NC(=S)N1N=C2c3ccccc3CC[C@H]2[C@@H]1c1cccs1	> 100	60.8	> 100	35.5	> 100	87.9	> 100	–	> 100	> 100	> 100	> 100	> 100	> 100	> 100	83	63	–	–	–
CC12CC[C@H](O)C(C)(C)[C@H]1CC[C@](C)(O)C2COc1ccc2ccc(=O)oc2c1 (some centres undefined)	> 100	> 100	> 100	> 100	> 100	> 100	> 100	–	> 100	> 100	> 100	> 100	> 100	> 100	> 100	> 100	> 100	–	–	–
CCOc1ccc(N=Nc2ccc3oc(=O)c(C(=O)Nc4ccc(OC)cc4)cc3c2)cc1	> 100	–	–	> 100	26.2	56.9	91.7	> 100	> 100	46.6	61.1	68	52.9	67	> 100	–	–	–	–	–
CCCC(=O)OC[n+]1cccc(-c2c(COC(=O)NC(C)C)c(COC(=O)NC(C)C)c3n2CCC3)c1	> 100	> 100	> 88.7	> 100	> 100	> 100	–	46	> 100	> 100	> 100	> 100	> 100	> 100	> 100	> 56.7	> 100	> 100	> 100	> 100
CC(=O)OC1CC2(c3ccccc3)C(=O)c3ccccc3N2O1 (centres undefined)	> 100	> 100	> 100	> 100	> 100	> 100	> 100	–	> 100	> 100	> 100	> 100	> 100	–	> 100	> 100	> 100	–	–	–
O=C1Nc2ccccc2Nc2nc3cccccc-3c21	> 100	> 100	> 100	> 100	> 100	> 100	> 100	> 100	> 100	> 100	> 100	> 100	> 100	> 100	> 100	> 100	> 100	–	–	–
O=C(Nc1ccc(Cl)cc1)/C(Cc1cccc[n+]1[O-])=N\Nc1ccc([N+](=O)[O-])cc1[N+](=O)[O-]	> 100	> 100	> 100	> 100	> 100	> 100	> 100	> 100	> 100	> 100	> 100	> 100	> 100	> 100	> 100	> 100	–	–	–	–
